Reference: paper PMC12207360, “Hyperpolarization Modulation of the T‐Type hCav3.2 Channel by Human Synenkephalin [1–53], a Shrew Neurotoxin Analogue without Paralytic Effects” (Angewandte Chemie (International Ed. in English), 2025)
Where no end group is shown, it is not given here.

What was measured:
[1] = system: mealworms (larva of Zophobas atratus); assay: Mealworm paralysis bioassay, i.p. injection; format: in vivo; conditions: for Paralyzed/total numbers: 100 µL per 1 g bodyweight, immediate lower-body paralysis
Protocol: Paralytic activity against mealworms was examined by using synthetic 2 dissolved in saline with mealworms (larva of Zophobas atratus, body weight: 0.7–1.0 g), as described previously.28 Synthetic hSYN was injected into the abdomen of mealworms and observed immediate lower-body paralysis (injection volume: 100 μL per 1.0 g mealworm bodyweight).
Phosphate buffered saline (PBS) was used as a control. […]
HEPES. The patch pipettes were ﬁlled with solution containing 130 mM CsCl, 10 mM EGTA, 3 mM Mg–AT P, a n d 0 . 4 m M […]
Circular dichroism spectrometry and stereostructure prediction of hSYN. […]
In brief, synthetic hSYN [1–53] (2) was dissolved in 50 mM KHPO4, pH 7.0 (ﬁnal concentration: 20 μM) in a 1 mm pathlength cell. The spectrum consisted of ﬁve scans acquired with a scan rate of 20 nm/min and a digital integration time of 2 sec. […]
Schrödinger, LLC) was used for calculation of surface charge and final image processing which suitable for scientific

[2] = format: physicochemical; conditions: cysteine/cystine redox condition, 20% EtOH / 0.1 M aq. NH4OAc, pH 8.5, 37 °C; misfolded products predominantly converted to 2
From the text: We first examined the preparation of hSYN from the linear precursor peptide 1 (Scheme 1a). Oxidation of 1 in air or with DMSO gave only misfolded analogues with two (2SS) and/or three (3SS) disulfide bonds (Figure S1a,b). Meanwhile, a redox condition using cysteine / cystine in EtOH / aq. NH4OAc^[ [51] ^] smoothly promoted the formation of three disulfide bonds to afford hSYN (2) in 65% yield almost as a single isomer, along with trace amounts of misfolded 3SS analogue. […]
SH 前述の 22 の混合物に、前述のバッファーSHB (290 µL; 第四章第一節第四項) に溶解したSH 21SH
N-terminal segment(7.2 mg, 2.1 µmol) と TCEP-HCl (0.32 mg, 1.1 µmol) C-terminal segmentを加えた。6 M 水酸化ナトリウム水溶液1 で反応溶液を pH 7.0 に調整した後、室温で 22 時間攪拌した。得られた混合物を ODS カ
ラムクロマトグラフィー [COSMOSIL 75 C18 OPN (φ 8 x 8 mm), MeCN / H2O (0.1% TFA) = 0:1 Linear peptide 1. […]
rate 1.0 mL/min, UV 215 nm (A; 0.1% aq. TFA, B; 0.08% TFA/MeCN) ]. MS (MALDI-TO F ) m/z 3001.0 (calculated for […]
2: tR 12.2 min [Develosil® ODS HG-5 (5 µm, f 4.6 mm × 250 mm), temp. […] 40 °C, 25% for 10 min and 25–45% linear gradient for 20 min, flow rate […], UV215 nm (A; 0.1% aq. TFA, B; 0.08% TFA/MeCN), see Figure S7]; MS (MALDI-TO F ) m/z 2998.0 (calculated […]

human synenkephalin [1–53] (ECSQDCATCSYRLVRPADINFLACVMECEGKLPSLKIWETCKELLQLSKPELP; disulfide (positions not given here); also: Type II disulfides, places not given here; UniProt P01210 25-77, looked up, fragment) [compound 2, human synenkephalin N-terminal part [1–53], three disulfide bonds Cys(I)–Cys(V), Cys(II)–Cys(IV), Cys(III)–Cys(VI)]
Paralyzed/total numbers ([1]; 5.0 µg/g bodyweight): 0/4
Paralyzed/total numbers ([1]; 15 µg/g bodyweight): 0/3
Paralyzed/total numbers ([1]; 50 µg/g bodyweight): 0/4
paralytic effect on mealworms ([1]; even at 50 µg g−1 body weight): no paralytic effects on mealworms
thermodynamic stability [2]: most thermodynamically stable
